Source: article PMC5447088, “The Hybrid Strategy of Thermoactinospora rubra YIM 77501^T for Utilizing Cellulose as a Carbon Source at Different Temperatures” (Frontiers in Microbiology, 2017)

Columns and labels:
Assay in all cases: p-nitrophenol release, absorbance at […] nm
Format in all cases: biochemical, Thermoactinospora rubra
TrBG2 = details: optimal temperature 60 °C; optimal pH; pNPGlu assumed as the substrate of Table S5
TrBG3 = details: optimal temperature 50 °C; optimal pH; pNPGlu assumed as the substrate of Table S5
TrBG1 = details: optimal temperature 40 °C; optimal pH; pNPGlu assumed as the substrate of Table S5
TrBG5 = details: optimal temperature 50-60 °C; optimal pH; pNPGlu assumed as the substrate of Table S5

SMILES: O=[N+]([O-])c1ccc(O[C@@H]2O[C@H](CO)[C@@H](O)[C@H](O)[C@H]2O)cc1 [p-nitrophenyl-β-D-glucopyranoside]
- Km (TrBG2): 0.31 mM
- Km (TrBG3): 5.9 mM
- Km (TrBG1): 9.8 mM
- Km (TrBG5): 1.4 mM
